Here are results for 33 molecules from patent US11739074B2, “Ras inhibitors” (Revolution Medicines, Inc., priority 2019, dated 2023).

Some results are limits rather than exact numbers.

One assay has as its system AsPC-1 (K-Ras G12D). Description: CellTiter-Glo cell viability assay, AsPC-1. Format: cell-based. Conditions: Homo sapiens, ASPC1, 120 h, AsPC-1, K-Ras G12D, 5-day treatment; read-out: AsPC-1 Cell Viability IC50. As for the experimental part:
Determination of Cell Viability in RAS Mutant Cancer Cell Lines
Protocol: CellTiter-Glo® Cell Viability Assay
Note—The following protocol describes a procedure for monitoring cell viability of K-Ras mutant cancer cell lines in response to a compound of the invention. Other RAS isoforms may be employed, though the number of cells to be seeded will vary based on cell line used.
Test compounds (132.5 nL) were directly dispensed into the assay plates containing cells. […] On day 5, assay plates and their contents were equilibrated to room temperature for approximately 30 minutes. […] Luminescence was measured using the PerkinElmer Enspire. Data were normalized by the following: (Sample signal/Avg. DMSO)*100. The data were fit using a four-parameter logistic fit.
On to `CCn1c(-c2cccnc2[C@H](C)OC)c2c3cc(ccc31)-c1csc(n1)C[C@H](NC(=O)[C@H](C(C)C)N(C)C(=O)N1CC[C@H]1CN(C)C(=O)[C@@H]1CN1)C(=O)N1CCC[C@H](N1)C(=O)OCC(C)(C)C2` [Compound 235], for which the IC50 was over 10 µM.

`CCn1c(-c2cccnc2[C@H](C)OC)c2c3cc(ccc31)-c1cccc(c1)C[C@H](NC(=O)[C@H](C(C)C)N(C)C(=O)CCN=C=NCc1ccccc1OC)C(=O)N1CCC[C@H](N1)C(=O)OCC(C)(C)C2` [Compound 73]: the IC50 was in the range of 1 to 10 µM.

For the molecule `CCn1c(-c2cccnc2[C@H](C)OC)c2c3cc(ccc31)-c1cc(O)cc(c1)C[C@H](NC(=O)[C@@H](COC1CCN(C(=O)[C@H]3CN3)CC1)C(C)C)C(=O)N1CCC[C@H](N1)C(=O)OCC(C)(C)C2` [Compound 211], the half-maximal inhibitory concentration (IC50) was over 10 µM.

In the case of `CCn1c(-c2cccnc2[C@H](C)OC)c2c3cc(ccc31)-c1cc(O)cc(c1)C[C@H](NC(=O)[C@H](C(C)C)N(C)C(=O)c1ccc([C@H]3CN3)cc1)C(=O)N1CCC[C@H](N1)C(=O)OCC(C)(C)C2` [Compound 145], the concentration for half-maximal inhibition (IC50) was over 10 µM.

In the case of `CCn1c(-c2cnccc2COC)c2c3cc(ccc31)-c1cccc(c1)C[C@H](NC(=O)[C@H](C(C)C)N1CC[C@@H](CN=C=NCCOC)C1)C(=O)N1CCC[C@H](N1)C(=O)OCC(C)(C)C2` [Compound 80], the IC50 lay in the range of 1 to 10 µM.

`CCn1c(-c2cccnc2[C@H](C)OC)c2c3cc(ccc31)-c1cc(O)cc(c1)C[C@H](NC(=O)[C@H](C(C)C)N(C)C(=O)N1C[C@@H]3[C@H]1CCN3C(=O)[C@@H]1CN1)C(=O)N1CCC[C@H](N1)C(=O)OCC(C)(C)C2` [Compound 251]: the half-inhibitory concentration (IC50) was over 10 µM.

With `CCn1c(-c2cccnc2[C@H](C)OC)c2c3cc(ccc31)-c1cc(O)cc(c1)C[C@H](NC(=O)[C@H](C(C)C)N(C)C(=O)c1nc(NC(=O)[C@H]3CN3)cs1)C(=O)N1CCC[C@H](N1)C(=O)OCC(C)(C)C2` [Compound 212], the IC50 is over 10 µM.

`CCn1c(-c2cccnc2[C@H](C)OC)c2c3cc(ccc31)-c1cccc(c1)C[C@H](NC(=O)[C@H](C(C)C)N(C)C(=O)[C@H]1CC[C@H](N=C=NCc3ccccc3OC)C1)C(=O)N1CCC[C@H](N1)C(=O)OCC(C)(C)C2` [Compound 76]: the IC50 is 1 to 10 µM.

For `CCn1c(-c2cccnc2[C@H](C)OC)c2c3cc(ccc31)-c1cc(O)cc(c1)C[C@H](NC(=O)[C@H](C(C)C)N1CC[C@@]3(CCN(C(=O)[C@@H]4N[C@@H]4C4CC4)C3)C1=O)C(=O)N1CCC[C@H](N1)C(=O)OCC(C)(C)C2` [Compound 128], the IC50 was 1 to 10 µM.

Turning to `CCn1c(-c2cccnc2[C@H](C)OC)c2c3cc(ccc31)-c1cc(O)cc(c1)C[C@H](NC(=O)[C@H](C(C)C)N1CCC3(CN(C(=O)[C@H]4CN4)C3)C1=O)C(=O)N1CCC[C@H](N1)C(=O)OCC(C)(C)C2` [Compound 115], the IC50 is over 10 µM.

On to `CCn1c(-c2cccnc2[C@H](C)OC)c2c3cc(ccc31)-c1cc(O)cc(c1)C[C@H](NC(=O)[C@@H](COC1CN(C(=O)[C@H]3CN3)C1)C(C)C)C(=O)N1CCC[C@H](N1)C(=O)OCC(C)(C)C2` [Compound 312], for which the IC50 is over 10 µM.

As to `CCn1c(-c2cnccc2COC)c2c3cc(ccc31)-c1cccc(c1)C[C@H](NC(=O)[C@H](C(C)C)N(C)C(=O)CCN=C=NCc1ccccc1C)C(=O)N1CCC[C@H](N1)C(=O)OCC(C)(C)C2` [82 A and B], the 50% inhibitory concentration (IC50) lay in the range of 1 to 10 µM.

Consider `CCn1c(-c2cccnc2[C@H](C)OC)c2c3cc(ccc31)-c1cc(O)cc(c1)C[C@H](NC(=O)[C@H](C(C)C)N(C)C(=O)N1CC[C@@H](N(C)C(=O)[C@@H]3CN3)C1)C(=O)N1CCC[C@H](N1)C(=O)OCC(C)(C)C2` [Compound 253], for which the half-inhibitory concentration (IC50) is over 10 µM.

For `CCn1c(-c2cccnc2[C@H](C)OC)c2c3cc(ccc31)-c1cc(O)cc(c1)C[C@H](NC(=O)[C@H](C(C)C)N(C)C(=O)N1CC[C@@H](N(C)C(=O)[C@H]3CN3)C1)C(=O)N1CCC[C@H](N1)C(=O)OCC(C)(C)C2` [Compound 252], the IC50 is over 10 µM.

For `CCn1c(-c2cccnc2[C@H](C)OC)c2c3cc(ccc31)-c1cc(O)cc(c1)C[C@H](NC(=O)[C@H](C(C)C)N(C)C(=O)N1CCN(C(=O)[C@H]3CN3)C(=O)C1)C(=O)N1CCC[C@H](N1)C(=O)OCC(C)(C)C2` [Compound 143], the IC50 is over 10 µM.

For `CCn1c(-c2cccnc2[C@H](C)OC)c2c3cc(ccc31)-c1cc(O)cc(c1)C[C@H](NC(=O)[C@H](C(C)C)N1CC[C@H](NC(=O)[C@H]3CN3)C1=O)C(=O)N1CCC[C@H](N1)C(=O)OCC(C)(C)C2` [Compound 213], the IC50 is over 10 µM.

On to `CCn1c(-c2cnccc2COC)c2c3cc(ccc31)-c1cc(O)cc(c1)C[C@H](NC(=O)[C@H](C(C)C)N(C)C(=O)CN1C(=O)[C@H]3N[C@H]3C1=O)C(=O)N1CCC[C@H](N1)C(=O)OCC(C)(C)C2` [Compound 98], for which the IC50 is over 10 µM.

Consider `CCn1c(-c2cnccc2COC)c2c3cc(ccc31)-c1cccc(c1)C[C@H](NC(=O)[C@H](C(C)C)N(C)C(=O)CCN=C=NCc1ccc(OC)cc1OC)C(=O)N1CCC[C@H](N1)C(=O)OCC(C)(C)C2` [61 A and B], for which the IC50 was 1 to 10 µM.

In the case of `CCn1c(-c2cccnc2[C@H](C)OC)c2c3cc(ccc31)-c1cc(O)cc(c1)C[C@H](NC(=O)[C@H](C(C)C)N1CC[C@@H](NC(=O)[C@H]3CN3)C1=O)C(=O)N1CCC[C@H](N1)C(=O)OCC(C)(C)C2` [Compound 130], the IC50 is over 10 µM.

Regarding `CCn1c(-c2cnccc2COC)c2c3cc(ccc31)-c1cccc(c1)C[C@H](NC(=O)[C@H](C(C)C)N(C)C(=O)CCN=C=Nc1ccc(OC)cc1)C(=O)N1CCC[C@H](N1)C(=O)OCC(C)(C)C2` [15 A and B], the IC50 was over 10 µM.

For `CCn1c(-c2cccnc2[C@H](C)OC)c2c3cc(ccc31)-c1cc(O)cc(c1)C[C@H](NC(=O)[C@H](C(C)C)N1CCC3(CN(C(=O)[C@@H]4CN4)C3)C1=O)C(=O)N1CCC[C@H](N1)C(=O)OCC(C)(C)C2` [Compound 109], the 50% inhibitory concentration (IC50) was over 10 µM.

Turning to `CCn1c(-c2cccnc2[C@H](C)OC)c2c3cc(ccc31)-c1cccc(c1)C[C@H](NC(=O)[C@H](C(C)C)N(C)C(=O)[C@H]1C[C@H](N=C=Nc3c(C)cccc3C)C1)C(=O)N1CCC[C@H](N1)C(=O)OCC(C)(C)C2` [Compound 126], the IC50 was over 10 µM.

As to `CCn1c(-c2cnccc2COC)c2c3cc(ccc31)-c1cccc(c1)C[C@H](NC(=O)[C@H](C(C)C)N(C)C(=O)CC1(N=C=Nc3ccc(OC)cc3)CC1)C(=O)N1CCC[C@H](N1)C(=O)OCC(C)(C)C2` [65 A and B], the IC50 was 1 to 10 µM.

As to `CCn1c(-c2cnccc2COC)c2c3cc(ccc31)-c1cc(O)cc(c1)C[C@H](NC(=O)[C@H](C(C)C)N(C)C(=O)c1ccc(NC(=O)[C@H]3CN3)cn1)C(=O)N1CCC[C@H](N1)C(=O)OCC(C)(C)C2` [47 A and B], the 50% inhibitory concentration (IC50) was over 10 µM.

Consider `CCn1c(-c2cccnc2[C@H](C)OC)c2c3cc(ccc31)-c1cc(O)cc(c1)C[C@H](NC(=O)[C@H](C(C)C)N(C)C(=O)C1CC3(C1)CN(C(=O)[C@@H]1CN1)C3)C(=O)N1CCC[C@H](N1)C(=O)OCC(C)(C)C2` [Compound 180], for which the IC50 is over 10 µM.

Consider `CCn1c(-c2cccnc2[C@H](C)OC)c2c3cc(ccc31)-c1cc(O)cc(c1)C[C@H](NC(=O)[C@H](C(C)C)N(C)C(=O)N(C)C1CN(C(=O)[C@H]3CN3)C1)C(=O)N1CCC[C@H](N1)C(=O)OCC(C)(C)C2` [Compound 203], for which the IC50 was over 10 µM.

For the molecule `CCn1c(-c2cccnc2[C@H](C)OC)c2c3cc(ccc31)-c1cc(O)cc(c1)C[C@H](NC(=O)[C@H](C(C)C)N(C)C(=O)[C@H]1CCN(C(=O)[C@H]3CN3)[C@H]1C)C(=O)N1CCC[C@H](N1)C(=O)OCC(C)(C)C2` [Compound 206], the IC50 was over 10 µM.

For the molecule `CCn1c(-c2cccnc2[C@H](C)OC)c2c3cc(ccc31)-c1cc(O)cc(c1)C[C@H](NC(=O)[C@H](C(C)C)N(C)C(=O)N1CC(NC(=O)[C@H]3CN3)C1)C(=O)N1CCC[C@H](N1)C(=O)OCC(C)(C)C2` [Compound 189], the half-inhibitory concentration (IC50) is over 10 µM.

For the molecule `CCn1c(-c2cccnc2[C@H](C)OC)c2c3cc(ccc31)-c1cc(O)cc(c1)C[C@H](NC(=O)[C@H](C(C)C)N(C)C(=O)N1C[C@@H]3[C@H]1CCN3C(=O)[C@H]1CN1)C(=O)N1CCC[C@H](N1)C(=O)OCC(C)(C)C2` [Compound 250], the concentration for half-maximal inhibition (IC50) was over 10 µM.

Consider `CCn1c(-c2cccnc2[C@H](C)OC)c2c3cc(ccc31)-c1cc(O)cc(c1)C[C@H](NC(=O)[C@H](C(C)C)N(C)C(=O)N1CCN(C(=O)[C@@H]3CN3)C(=O)C1)C(=O)N1CCC[C@H](N1)C(=O)OCC(C)(C)C2` [Compound 194], for which the half-inhibitory concentration (IC50) is over 10 µM.

Turning to `CCn1c(-c2cccnc2[C@H](C)OC)c2c3cc(ccc31)-c1cc(O)cc(c1)C[C@H](NC(=O)[C@H](C(C)C)N(C)C(=O)N1CC(NC(=O)[C@@H]3CN3)C1)C(=O)N1CCC[C@H](N1)C(=O)OCC(C)(C)C2` [Compound 188], the half-maximal inhibitory concentration (IC50) is over 10 µM.

Consider `CCn1c(-c2cccnc2[C@H](C)OC)c2c3cc(ccc31)-c1cc(O)cc(c1)C[C@H](NC(=O)[C@H](C(C)C)N(C)C(=O)c1ccc([C@@H]3CN3)cc1)C(=O)N1CCC[C@H](N1)C(=O)OCC(C)(C)C2` [Compound 131], for which the half-maximal inhibitory concentration (IC50) is over 10 µM.

The same assay, now with this note: Homo sapiens, ASPC1, 120 h, read-out: AsPC-1 Cell Viability IC50, AsPC-1, K-Ras G12D, 5-day treatment.
As to `CCn1c(-c2cccnc2[C@H](C)OC)c2c3cc(ccc31)-c1cc(O)cc(c1)C[C@H](NC(=O)[C@H](C(C)C)N(C)C(=O)CN(C)C(=O)[C@H]1N[C@@H]1C1CC1)C(=O)N1CCC[C@H](N1)C(=O)OCC(C)(C)C2` [Compound 135], the half-inhibitory concentration (IC50) was 0.1 to 1 µM.

Broadly, the IC50 is the concentration at which inhibition is half-maximal.
